Reference: ChEMBL document CHEMBL5465560, “Selectivity Literature for EUbOPEN Chemogenomic Library” (2024)

Tests used:
[1] = target: Mitogen-activated protein kinase 1 (Homo sapiens, UniProt P28482); test: Selectivity interaction (Millipore kinase profiler) EUB0000124b MAPK1; conditions: at 10 µM
[2] = target: Bone morphogenetic protein receptor type-1A (Homo sapiens, UniProt P36894); test: Selectivity interaction (KinomeScan (DiscoverX)) EUB0001079a BMPR1A; conditions: at 1 µM
Activated CDC42 kinase 1 = Activated CDC42 kinase 1 (Homo sapiens, UniProt Q07912); conditions: at 10 µM
[3] = target: Receptor-type tyrosine-protein kinase FLT3 (Homo sapiens) (UniProt P36888); conditions: at 10 µM
Sequence of Receptor-type tyrosine-protein kinase FLT3 (Homo sapiens) (P36888 whole entry): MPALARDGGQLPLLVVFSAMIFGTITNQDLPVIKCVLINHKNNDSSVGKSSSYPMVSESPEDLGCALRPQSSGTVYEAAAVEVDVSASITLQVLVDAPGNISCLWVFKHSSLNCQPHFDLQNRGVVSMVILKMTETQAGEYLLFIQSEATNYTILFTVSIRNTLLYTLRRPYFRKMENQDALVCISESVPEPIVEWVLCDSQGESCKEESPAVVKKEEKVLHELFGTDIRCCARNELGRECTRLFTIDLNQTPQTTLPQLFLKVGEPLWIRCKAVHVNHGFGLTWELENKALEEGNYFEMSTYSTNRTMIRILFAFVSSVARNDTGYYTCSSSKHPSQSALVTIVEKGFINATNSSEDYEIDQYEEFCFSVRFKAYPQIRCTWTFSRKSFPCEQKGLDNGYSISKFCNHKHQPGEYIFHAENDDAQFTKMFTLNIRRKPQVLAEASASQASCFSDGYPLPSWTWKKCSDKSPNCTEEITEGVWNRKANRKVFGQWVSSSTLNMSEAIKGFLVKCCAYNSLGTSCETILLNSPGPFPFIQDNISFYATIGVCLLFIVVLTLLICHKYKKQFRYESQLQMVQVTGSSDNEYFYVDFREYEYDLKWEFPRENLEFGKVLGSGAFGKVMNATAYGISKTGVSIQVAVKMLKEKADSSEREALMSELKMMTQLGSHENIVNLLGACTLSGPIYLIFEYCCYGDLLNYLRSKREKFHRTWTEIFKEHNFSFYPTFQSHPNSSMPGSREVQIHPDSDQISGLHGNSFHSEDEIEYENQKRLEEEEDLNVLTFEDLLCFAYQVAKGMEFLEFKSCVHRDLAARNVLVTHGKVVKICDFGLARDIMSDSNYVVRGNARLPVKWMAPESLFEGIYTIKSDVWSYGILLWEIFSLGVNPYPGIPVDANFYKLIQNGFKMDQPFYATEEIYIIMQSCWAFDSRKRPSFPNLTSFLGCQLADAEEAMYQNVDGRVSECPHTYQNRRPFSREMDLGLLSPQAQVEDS

[4] = target: Histone-lysine N-methyltransferase SETDB1 (Homo sapiens) (UniProt Q15047); test: Selectivity interaction (Transferase panel (protein, RNA, and DNA methyltransferases. and EP300 (acetyltransferase))) EUB0000270b SETDB1
[5] = target: T1, Bromodomain and PHD finger-containing protein 3 (Homo sapiens) (UniProt Q9ULD4); test: Selectivity interaction (PWWP, WD40, and Tudor domain panel (DSLS measurements, literature)) EUB0000270b BRPF3
T1 sequence (whole entry): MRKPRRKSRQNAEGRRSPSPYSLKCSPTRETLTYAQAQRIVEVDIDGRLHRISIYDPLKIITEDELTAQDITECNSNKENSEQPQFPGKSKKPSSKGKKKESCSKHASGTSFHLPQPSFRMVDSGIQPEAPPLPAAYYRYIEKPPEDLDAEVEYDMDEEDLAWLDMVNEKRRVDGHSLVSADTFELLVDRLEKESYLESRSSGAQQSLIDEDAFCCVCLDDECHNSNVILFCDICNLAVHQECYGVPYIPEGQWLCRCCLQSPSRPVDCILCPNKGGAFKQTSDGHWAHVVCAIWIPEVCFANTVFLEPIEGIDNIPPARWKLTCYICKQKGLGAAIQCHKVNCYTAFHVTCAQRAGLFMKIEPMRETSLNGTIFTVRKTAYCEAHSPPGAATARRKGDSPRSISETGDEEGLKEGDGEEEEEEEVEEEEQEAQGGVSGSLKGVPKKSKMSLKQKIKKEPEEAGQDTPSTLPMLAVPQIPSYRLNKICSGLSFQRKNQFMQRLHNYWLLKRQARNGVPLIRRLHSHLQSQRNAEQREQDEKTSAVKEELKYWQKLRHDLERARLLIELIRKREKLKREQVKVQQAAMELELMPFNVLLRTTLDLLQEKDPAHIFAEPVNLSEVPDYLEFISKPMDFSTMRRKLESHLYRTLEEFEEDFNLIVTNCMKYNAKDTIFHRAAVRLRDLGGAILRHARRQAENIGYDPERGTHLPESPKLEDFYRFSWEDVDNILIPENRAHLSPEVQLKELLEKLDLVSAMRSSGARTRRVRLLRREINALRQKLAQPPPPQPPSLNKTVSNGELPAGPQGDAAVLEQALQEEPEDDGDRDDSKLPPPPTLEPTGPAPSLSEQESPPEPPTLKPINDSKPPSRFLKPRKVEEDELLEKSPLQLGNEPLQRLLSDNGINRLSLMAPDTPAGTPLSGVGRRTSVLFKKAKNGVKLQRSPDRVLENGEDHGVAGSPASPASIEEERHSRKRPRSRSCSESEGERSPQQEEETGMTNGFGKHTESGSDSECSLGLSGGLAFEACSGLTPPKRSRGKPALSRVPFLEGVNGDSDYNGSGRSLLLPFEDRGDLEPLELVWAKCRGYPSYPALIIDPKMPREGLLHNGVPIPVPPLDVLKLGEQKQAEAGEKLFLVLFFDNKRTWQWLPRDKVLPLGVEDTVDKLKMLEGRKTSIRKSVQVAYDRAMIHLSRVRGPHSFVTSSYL

[6] = target: Tyrosine-protein kinase Fes/Fps (Homo sapiens) (UniProt P07332); test: Selectivity interaction (ActivX KiNativ screen (kinase selectivity in THP-1 cell lysates)) EUB0000639a FES; assay type: subcellular; conditions: lysate
Sequence of Tyrosine-protein kinase Fes/Fps (Homo sapiens) (P07332 whole entry): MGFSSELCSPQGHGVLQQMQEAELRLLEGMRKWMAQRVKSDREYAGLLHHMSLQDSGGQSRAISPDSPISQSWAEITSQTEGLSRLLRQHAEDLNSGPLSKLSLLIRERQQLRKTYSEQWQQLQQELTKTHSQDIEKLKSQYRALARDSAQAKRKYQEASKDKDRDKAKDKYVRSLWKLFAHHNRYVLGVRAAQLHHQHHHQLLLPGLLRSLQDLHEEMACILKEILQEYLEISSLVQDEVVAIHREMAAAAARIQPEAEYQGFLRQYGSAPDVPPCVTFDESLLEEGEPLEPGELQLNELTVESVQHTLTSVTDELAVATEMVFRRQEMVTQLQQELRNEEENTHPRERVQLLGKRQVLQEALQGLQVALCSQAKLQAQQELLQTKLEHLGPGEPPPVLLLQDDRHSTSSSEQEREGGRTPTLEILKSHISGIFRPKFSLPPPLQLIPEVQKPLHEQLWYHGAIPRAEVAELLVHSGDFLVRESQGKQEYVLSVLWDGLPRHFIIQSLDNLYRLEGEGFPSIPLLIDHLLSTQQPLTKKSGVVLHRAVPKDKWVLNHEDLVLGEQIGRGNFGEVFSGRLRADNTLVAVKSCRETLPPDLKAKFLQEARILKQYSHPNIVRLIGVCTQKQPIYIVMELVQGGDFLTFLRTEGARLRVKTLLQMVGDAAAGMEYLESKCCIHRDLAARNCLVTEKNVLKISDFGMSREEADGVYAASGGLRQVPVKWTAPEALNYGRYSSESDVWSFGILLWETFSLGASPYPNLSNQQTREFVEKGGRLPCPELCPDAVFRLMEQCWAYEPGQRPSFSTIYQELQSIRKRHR

[7] = target: Mitogen-activated protein kinase 9 (Homo sapiens, UniProt P45984); test: Selectivity interaction (ActivX KiNativ screen (kinase selectivity in THP-1 cell lysates)) EUB0000639a MAPK9; assay type: subcellular; conditions: lysate, at 1 µM
Sequence of Mitogen-activated protein kinase 9 (P45984 whole entry, looked up): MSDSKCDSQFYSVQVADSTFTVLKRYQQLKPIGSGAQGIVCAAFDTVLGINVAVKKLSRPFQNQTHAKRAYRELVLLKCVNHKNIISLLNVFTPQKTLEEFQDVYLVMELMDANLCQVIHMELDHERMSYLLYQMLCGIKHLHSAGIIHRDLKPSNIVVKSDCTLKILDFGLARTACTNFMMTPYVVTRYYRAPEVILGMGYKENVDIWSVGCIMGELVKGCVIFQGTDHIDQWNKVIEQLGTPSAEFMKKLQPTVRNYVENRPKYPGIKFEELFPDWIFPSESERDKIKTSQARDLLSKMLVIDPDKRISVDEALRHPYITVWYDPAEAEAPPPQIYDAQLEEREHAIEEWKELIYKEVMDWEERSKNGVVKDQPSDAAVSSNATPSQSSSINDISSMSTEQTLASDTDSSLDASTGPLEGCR

[8] = target: Vascular endothelial growth factor receptor 1 (Homo sapiens) (UniProt P17948); conditions: at 10 µM
[9] = target: MAP kinase-activated protein kinase 2 (Homo sapiens, UniProt P49137); test: Selectivity interaction (Kinase screening (Nanosyn)) EUB0000604a MAPKAPK2
Sequence of MAP kinase-activated protein kinase 2 (P49137 whole entry, looked up): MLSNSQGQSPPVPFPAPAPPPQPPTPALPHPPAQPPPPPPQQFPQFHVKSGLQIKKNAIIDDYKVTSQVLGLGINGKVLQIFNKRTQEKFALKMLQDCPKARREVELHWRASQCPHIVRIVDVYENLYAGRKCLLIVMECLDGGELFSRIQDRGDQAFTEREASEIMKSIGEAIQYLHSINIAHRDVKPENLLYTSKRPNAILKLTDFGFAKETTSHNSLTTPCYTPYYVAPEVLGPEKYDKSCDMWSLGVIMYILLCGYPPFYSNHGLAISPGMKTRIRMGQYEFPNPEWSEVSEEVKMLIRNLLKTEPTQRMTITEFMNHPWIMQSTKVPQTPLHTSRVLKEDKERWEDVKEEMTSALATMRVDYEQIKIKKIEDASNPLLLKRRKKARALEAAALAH

[10] = target: Dual specificity mitogen-activated protein kinase kinase 2 (Homo sapiens) (UniProt P36507); test: Selectivity interaction (Ambit KINOMEscan and KiNATiv profiling in Jurkat cells) EUB0000090b MAP2K2; assay type: cell-based; conditions: at 1 µM
Sequence of Dual specificity mitogen-activated protein kinase kinase 2 (Homo sapiens) (P36507 whole entry): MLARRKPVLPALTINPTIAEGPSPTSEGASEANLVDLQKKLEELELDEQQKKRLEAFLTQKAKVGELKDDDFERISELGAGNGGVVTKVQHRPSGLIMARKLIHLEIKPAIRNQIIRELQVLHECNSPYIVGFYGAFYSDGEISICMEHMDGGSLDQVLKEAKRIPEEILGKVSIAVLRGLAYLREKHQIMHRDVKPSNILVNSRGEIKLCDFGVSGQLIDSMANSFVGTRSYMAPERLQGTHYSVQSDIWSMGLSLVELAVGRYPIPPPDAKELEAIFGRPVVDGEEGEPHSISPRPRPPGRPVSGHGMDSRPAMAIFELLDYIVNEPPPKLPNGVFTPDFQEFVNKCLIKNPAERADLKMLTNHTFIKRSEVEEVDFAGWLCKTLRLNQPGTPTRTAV

[11] = target: Tyrosine-protein kinase JAK2 (Homo sapiens, UniProt O60674); test: Selectivity interaction (Antiproliferative activity against Tel-kinase transformed Ba/F3 cell line) EUB0000045b JAK2; assay type: cell-based; conditions: BaF3
[12] = target: Tyrosine-protein kinase SYK (Homo sapiens, UniProt P43405); test: Selectivity interaction (KinomeScan (DiscoverX)) EUB0000695a SYK; conditions: at 100 nM
[13] = target: Insulin-like growth factor 1 receptor (Homo sapiens, UniProt P08069); test: Selectivity interaction (Kinase panel (Z-LYTE Assay)) EUB0001632a IGF1R; conditions: at 10 µM
[14] = target: Protein kinase C beta type (Homo sapiens, UniProt P05771); test: Selectivity interaction (Kinase panel (Z-LYTE Assay)) EUB0001632a PRKCB; conditions: at 10 µM
[15] = target: Serine/threonine-protein kinase N3 (Homo sapiens) (UniProt Q6P5Z2); test: Selectivity interaction (ProQinase) EUB0000171b PKN3
Sequence of Serine/threonine-protein kinase N3 (Homo sapiens) (Q6P5Z2 whole entry, looked up): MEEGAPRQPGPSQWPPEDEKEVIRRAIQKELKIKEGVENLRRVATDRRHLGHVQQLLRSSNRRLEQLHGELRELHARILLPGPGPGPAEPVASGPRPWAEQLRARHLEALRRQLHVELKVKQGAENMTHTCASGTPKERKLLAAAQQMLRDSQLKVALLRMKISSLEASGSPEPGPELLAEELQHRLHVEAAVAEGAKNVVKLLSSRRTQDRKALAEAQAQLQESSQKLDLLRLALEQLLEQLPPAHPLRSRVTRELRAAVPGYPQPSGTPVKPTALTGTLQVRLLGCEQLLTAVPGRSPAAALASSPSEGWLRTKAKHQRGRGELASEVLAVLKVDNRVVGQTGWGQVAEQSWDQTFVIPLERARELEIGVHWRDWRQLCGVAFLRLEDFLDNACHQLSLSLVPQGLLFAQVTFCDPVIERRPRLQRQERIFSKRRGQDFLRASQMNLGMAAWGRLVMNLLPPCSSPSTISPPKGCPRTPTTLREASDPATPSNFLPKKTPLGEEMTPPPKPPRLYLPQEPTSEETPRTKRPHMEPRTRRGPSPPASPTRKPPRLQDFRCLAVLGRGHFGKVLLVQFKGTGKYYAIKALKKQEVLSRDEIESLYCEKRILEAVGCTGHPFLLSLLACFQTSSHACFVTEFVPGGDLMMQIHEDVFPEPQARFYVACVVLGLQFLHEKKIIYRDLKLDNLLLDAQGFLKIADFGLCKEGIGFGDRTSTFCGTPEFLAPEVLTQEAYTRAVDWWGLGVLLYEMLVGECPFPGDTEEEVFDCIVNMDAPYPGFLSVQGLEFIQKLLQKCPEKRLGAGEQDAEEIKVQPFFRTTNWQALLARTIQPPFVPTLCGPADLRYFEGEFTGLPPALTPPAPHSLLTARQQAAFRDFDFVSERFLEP

Sequence of Bone morphogenetic protein receptor type-1A (P36894 whole entry): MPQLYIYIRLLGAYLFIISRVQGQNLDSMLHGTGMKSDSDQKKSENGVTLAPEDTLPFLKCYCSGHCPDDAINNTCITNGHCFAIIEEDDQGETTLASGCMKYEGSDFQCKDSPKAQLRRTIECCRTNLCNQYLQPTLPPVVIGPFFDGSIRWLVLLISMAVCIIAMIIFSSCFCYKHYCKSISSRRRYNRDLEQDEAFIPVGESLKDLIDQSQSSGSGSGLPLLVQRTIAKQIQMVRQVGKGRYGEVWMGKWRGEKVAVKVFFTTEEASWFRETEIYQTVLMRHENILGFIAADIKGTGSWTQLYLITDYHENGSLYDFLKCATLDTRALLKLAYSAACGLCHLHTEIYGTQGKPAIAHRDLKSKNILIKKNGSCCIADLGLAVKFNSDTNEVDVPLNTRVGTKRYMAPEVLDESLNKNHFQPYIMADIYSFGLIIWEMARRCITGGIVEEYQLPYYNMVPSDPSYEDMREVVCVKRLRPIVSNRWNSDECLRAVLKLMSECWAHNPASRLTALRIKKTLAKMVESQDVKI
Sequence of Mitogen-activated protein kinase 1 (P28482 whole entry): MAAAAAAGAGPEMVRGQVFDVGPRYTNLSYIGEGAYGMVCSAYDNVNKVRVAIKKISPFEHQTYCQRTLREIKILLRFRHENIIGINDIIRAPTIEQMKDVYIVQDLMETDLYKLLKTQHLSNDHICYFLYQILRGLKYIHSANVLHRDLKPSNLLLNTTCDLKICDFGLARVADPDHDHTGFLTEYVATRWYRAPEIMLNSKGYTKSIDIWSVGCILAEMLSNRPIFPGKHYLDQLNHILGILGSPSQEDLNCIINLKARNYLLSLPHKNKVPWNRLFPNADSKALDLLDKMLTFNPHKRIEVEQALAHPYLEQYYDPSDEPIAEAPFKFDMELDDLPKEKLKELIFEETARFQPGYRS

CC(=O)Nc1cccc(-n2c(=O)n(C3CC3)c(=O)c3c(Nc4ccc(I)cc4F)n(C)c(=O)c(C)c32)c1
% of control [1]: 86%

Nc1cnc(N2CCc3cc(S(=O)(=O)Nc4c(F)cc(Cl)cc4F)cc(N4CCCC4=O)c32)nc1 [TP-020n]
% of control [2]: 91%

CCN(CC)CCCCNc1ncc2cc(-c3cc(OC)cc(OC)c3)c(NC(=O)NC(C)(C)C)nc2n1
% of control (Activated CDC42 kinase 1): 100%
% of control [3]: 100%

Cc1cc(CN)cc(C)c1-c1ncn(C)c1-c1cncn1C
% activity ([4]; at 1 µM): > 90%
% activity ([4]; at 10 µM): > 80%
dTagg [5]: 0.3 K

CC[C@@H]1[C@H](F)C(=O)N[C@@H]1COc1nccc2cc(C(N)=O)c(OC)cc12 [ZIMLOVISERTIB]
% of inhibition ([6]; at 0.01 µM): 0.3%
% of inhibition ([6]; at 0.04 µM): 2.2%
% of inhibition ([6]; at 0.2 µM): 5.7%
% of inhibition ([6]; at 1 µM): 0.6%
% of inhibition ([6]; at 5 µM): -23.7%
% of inhibition [7]: -5.9%

COCC(=O)NC/C=C/c1ccc2ncnc(Nc3ccc(Oc4ccc(C)nc4)c(C)c3)c2c1 [CP-724714]
% of control [8]: 88%

Cc1cnc(Nc2ccc(F)cc2Cl)nc1-c1c[nH]c(C(=O)N[C@H](CO)c2cccc(Cl)c2)c1
% of inhibition [9]: 0%

CN(C)C/C=C/C(=O)Nc1ccc(C(=O)N2CCCC(Nc3ncc(Cl)c(-c4c[nH]c5ccccc45)n3)C2)cc1 (configuration not stated)
% of control [10]: 93%

C=CC(=O)Nc1cc(-n2c(=O)ccc3cnc4ccc(-c5ccc(NS(C)(=O)=O)cc5)cc4c32)ccc1C
GIC50 [11]: 5.83 µM

Cc1cc(F)c(C(=O)Nc2cccc(-c3nncn3C(C)C)n2)cc1-n1cnc(C2CC2)c1
% of control [12]: 76%

Cn1cc(-n2cnc3c(NCc4nc5cc(Cl)c(Cl)cc5[nH]4)nc(N4CCOCC4)nc32)cn1
% of control [13]: 3.73%
% of control [14]: 45.9%

C=CC(=O)Nc1cccc(C(=O)Nc2ccc(Nc3cc(-c4[nH]c(SC)nc4C)ccn3)cc2)c1
% of control ([15]; at 1 µM): 79%
% of control ([15]; at 5 µM): 54%
